Results reported in US20180016596A1, “NUCLEIC ACID CONSTRUCTS, PLANTS COMPRISING SAME AND USES THEREOF IN ENHANCING PLANT PEST RESISTANCE AND ALTERING PLANT MONOTERPENE PROFILE” (Futuragene Israel Ltd., priority 2014, published 2018).

Tested on: Ophelimus maskelli
Assay: Free choice experiment: Eucalyptus camaldulensis saplings with monoterpene disks exposed to Ophelimus maskelli gall wasps
Type: in vivo
Settings: for Eucalyptus camaldulensis resistance to Ophelimus maskelli infection / Ophelimus maskelli oviposition / number of infected leaves compared to control / number of galls per leaf compared to control: free choice, in words; for Ophelimus maskelli oviposition: compared to controls; for number of infected leaves compared to control: eucalyptol vs mineral oil, geraniol and citronellal vs mineral oil and eucalyptol controls; for number of galls per leaf compared to control: vs mineral oil and eucalyptol controls
Method: Preparation of monoterpene disks—100 μl of pure monoterpene solutions of geraniol, citronellal, eucalyptol (also known as 1,8-cineole, 1,8-epoxy-p-menthane) or mineral oil (Sigma-Aldrich Cat. Nos. G9698, 27470, C80601 or M5904, respectively) were each mixed with 5 ml of Vaseline. The mixed solutions were then spread using a spatula onto 20 mm in diameter filter paper disks (Whatman 3 mm cellulose chromatography papers, Sigma-Aldrich Cat. No. Z742422).
Free choice experiments—The free-choice experiments, were gall wasps were free to choose which plant to infest in a given cage, were carried out with Ophelimus maskelli gall wasp in three net cages of 80 cm×100 cm×150 cm in a greenhouse (28 ±2° C.) as described in Bleeker et al. [Plant Physiol. (2009) 151(2): 925-935], with the following modifications. Four Eucalyptus camaldulensis 3 months old saplings were placed randomly in each cage and 10 disks with either geraniol, citronellal, eucalyptol (1,8-Cineole, used as control) or mineral oil (used as control) were attached by metal wires to the branches of each sapling (10 branches for each sapling) (see FIG. 2) so that each sapling had 10 disks attached with one of the treatments. Next, 500 Ophelimus maskelli female adult wasps were released in the middle of each net cage. One week later the disks were removed from the branches of the saplings, the saplings were taken out of the cage and thereafter the Eucalyptus saplings were transferred to an insect free net house, an outdoor perimeter surrounded by a 50 mesh insect proof net. The plants were maintained in the net house for 6 weeks after inoculation. At the end of the six week period, infection levels were evaluated by counting the number of galls developed on the treated saplings.

[1] = average of 3 cages, leaves with 1-10 galls per leaf
[2] = average of 3 cages, leaves with 10-50 galls per leaf
[3] = average of 3 cages, leaves with 50-100 galls per leaf
[4] = cage 1, leaves with 1-10 galls per leaf, 6 weeks after inoculation
[5] = cage 1, leaves with 10-50 galls per leaf, 6 weeks after inoculation
[6] = cage 1, leaves with 50-100 galls per leaf, 6 weeks after inoculation
[7] = cage 1, total, 6 weeks after inoculation
[8] = cage 2, leaves with 1-10 galls per leaf, 6 weeks after inoculation
[9] = cage 2, leaves with 10-50 galls per leaf, 6 weeks after inoculation
[10] = cage 2, leaves with 50-100 galls per leaf, 6 weeks after inoculation
[11] = cage 2, total, 6 weeks after inoculation
[12] = cage 3, leaves with 1-10 galls per leaf, 6 weeks after inoculation
[13] = cage 3, leaves with 10-50 galls per leaf, 6 weeks after inoculation
[14] = cage 3, leaves with 50-100 galls per leaf, 6 weeks after inoculation
[15] = cage 3, total, 6 weeks after inoculation

CC(C)=CCCC(C)CC=O (stereo not shown) [citronellal, 3,7-dimethyloct-6-en-1-al]
Number of infected leaves [1]: 1 | Number of infected leaves [2]: 3 | Number of infected leaves [3]: 0 | Number of infected leaves (average of 3 cages, total): 4 | Number of infected leaves [4]: 1 | Number of infected leaves [5]: 4 | Number of infected leaves [6]: 0 | Number of infected leaves [7]: 5 | Number of infected leaves [8]: 1 | Number of infected leaves [9]: 2 | Number of infected leaves [10]: 0 | Number of infected leaves [11]: 3 | Number of infected leaves [12]: 1 | Number of infected leaves [13]: 3 | Number of infected leaves [14]: 0 | Number of infected leaves [15]: 4 | Eucalyptus camaldulensis resistance to Ophelimus maskelli infection: significantly increased | Ophelimus maskelli oviposition: significantly decreased | number of infected leaves compared to control: reduced number of infected leaves | number of galls per leaf compared to control: reduced number of galls per leaf

CC12CCC(CC1)C(C)(C)O2 [eucalyptol, 1,8-cineole, reference compound]
Number of infected leaves [1]: 5.333 | Number of infected leaves [2]: 10 | Number of infected leaves [3]: 6 | Number of infected leaves (average of 3 cages, total): 21.33 | Number of infected leaves [4]: 4 | Number of infected leaves [5]: 14 | Number of infected leaves [6]: 6 | Number of infected leaves [7]: 24 | Number of infected leaves [8]: 5 | Number of infected leaves [9]: 6 | Number of infected leaves [10]: 6 | Number of infected leaves [11]: 17 | Number of infected leaves [12]: 7 | Number of infected leaves [13]: 10 | Number of infected leaves [14]: 6 | Number of infected leaves [15]: 23 | Ophelimus maskelli oviposition: did not have a negative effect | number of infected leaves compared to control: slight increase

CC(C)=CCC/C(C)=C/CO [geraniol, (trans)-3,7-Dimethyl-2,6-octadien-1-ol]
Number of infected leaves [1]: 4 | Number of infected leaves [2]: 2 | Number of infected leaves [3]: 1 | Number of infected leaves (average of 3 cages, total): 7 | Number of infected leaves [4]: 4 | Number of infected leaves [5]: 3 | Number of infected leaves [6]: 1 | Number of infected leaves [7]: 8 | Number of infected leaves [8]: 4 | Number of infected leaves [9]: 2 | Number of infected leaves [10]: 1 | Number of infected leaves [11]: 7 | Number of infected leaves [12]: 4 | Number of infected leaves [13]: 1 | Number of infected leaves [14]: 1 | Number of infected leaves [15]: 6 | Eucalyptus camaldulensis resistance to Ophelimus maskelli infection: significantly increased | Ophelimus maskelli oviposition: significantly decreased | number of infected leaves compared to control: reduced number of infected leaves | number of galls per leaf compared to control: reduced number of galls per leaf
